Data from PMC12195738 (Pharmaceuticals, 2025).
Like-named read-outs stand apart in the source and are kept apart here.

Experiments:
[1] = set-up: method as in doi:10.2343/geochemj.2.0226; settings: cited from earlier work
[2] = Visual appearance of Flu-Na solutions at different pH values; format: physicochemical; settings: 1 mg/mL, pH 4.85
Procedure: Solutions were prepared at a concentration of 1 mg/mL, and visual appearance was recorded after pH adjustment.

[3] = set-up: method as in PMID 9232516; settings: reported in the literature; cited from earlier work
porcine nasal mucosa [4] = assay: Flu-Na permeability across IPA-damaged porcine nasal mucosa (Franz diffusion cells); format: in vitro ADME, Sus scrofa domesticus
Procedure: To systematically investigate this issue, nasal mucosa tissues harvested from the same pig were immersed in 10%, 50%, or 100% IPA for 30 min to induce graded levels of chemical damage. A parallel control sample was incubated in DPBS under identical conditions. Flu-Na permeability was then measured as an indicator of mucosal integrity. This experiment was independently repeated in tissues from three different pigs to ensure reproducibility. Representative images of nasal mucosa following IPA-induced damage are shown in Figure 9, and the corresponding Papp values, normalized to a standardized mucosal thickness of 0.80 mm, are presented in Figure 10.
Tissues obtained from the same pig were used to evaluate the effects of different IPA concentrations and the DPBS control within a single experimental set. To ensure reproducibility, the entire experiment was independently repeated using tissues from three different pigs.
For each experimental set, three pieces of nasal mucosa tissue from the same pig were submerged in 3 mL of IPA at concentrations of 10%, 50%, or 100% for 30 min to induce graded levels of epithelial damage. A parallel control tissue sample from the same pig was submerged in 3 mL of DPBS under identical conditions. Following exposure, all tissues were thoroughly rinsed with DPBS to remove residual solvent and were immediately mounted in Franz diffusion cells for permeability testing.
Nasal mucosal permeability was evaluated using a Phoenix™ DB-6 Franz diffusion system (Teledyne Hanson Research, Los Angeles, CA, USA), equipped with a diffusion area of 1.0 cm^2 and a receptor volume of 10 mL. The nasal mucosa was mounted between the donor and receptor chambers, with the epithelial side facing the donor compartment. […]
The Flu-Na loading solution was prepared at a fixed concentration of 1 mg/mL by dissolving 25 mg of Flu-Na in 25 mL of DPBS using volumetric flasks. […] The supernatants were collected for microplate reader (SpectraMax iD5, Molecular Devices, San Jose, CA, USA) analysis.

[5] = Shake-flask log D (n-octanol/DPBS); format: physicochemical; settings: pH increased from 6.0 to 10.0
Procedure: Equal volumes of n-octanol and DPBS were mixed and shaken at room temperature for 24 h using an incubator shaker (Lab-Line Instruments, Inc., Melrose Park, IL, USA) to achieve mutual saturation. The pre-saturated n-octanol and DPBS phases were then carefully transferred into separate centrifuge tubes and centrifuged (Centrifuge 5430 R, Eppendorf AG, Hamburg, Germany) at 5000× g for 20 min to ensure complete phase separation.
Flu-Na solutions were prepared at a final concentration of 1 mg/mL by dissolving Flu-Na in pre-saturated DPBS, followed by pH adjustment to approximately 6, 7, 8, 9, and 10 using sodium hydroxide or hydrochloric acid solutions. […]
The concentrations of Flu-Na in both phases were measured at 492 nm using the microplate reader (SpectraMax iD5, Molecular Devices, San Jose, CA, USA). Calibration curve standards were prepared using DPBS adjusted to the corresponding pH values to ensure accurate quantification under each condition. The log D was calculated as the base-10 logarithm of the concentration ratio between the n-octanol phase and the aqueous phase.

[6] = Ex vivo permeation across porcine nasal mucosa in Franz diffusion cells; format: in vitro ADME, Sus scrofa domesticus; settings: pig
Procedure: (§1) Nasal mucosa tissues were carefully dissected from the lower turbinates within the nasal cavity. Immediately after excision, the tissues were immersed in chilled DPBS to prevent desiccation and to preserve structural integrity. The samples were then cut into appropriate sizes, and mucosal thickness was measured using an electronic digital caliper (Fisher Scientific, Waltham, MA, USA) as described in previous work. […] The nasal mucosa was mounted between the donor and receptor chambers, with the epithelial side facing the donor compartment. DPBS was used as the receptor medium and maintained at 37 ± 0.5 °C under continuous stirring at 600 rpm. At predetermined time points (0.5, 1, 2, 3, 4, 5, 6, 7, and 8 h), 0.5 mL of sample was withdrawn from the receptor compartment and immediately replaced with fresh DPBS to maintain sink conditions. The melatonin loading solution was prepared by dissolving an appropriate amount of melatonin powder in 5 mL of DPBS, stirring for 15 min, and filtering through a 0.2 µm nylon membrane filter (Fisher Scientific, Waltham, MA, USA). […] At the start of the experiment, 0.5 mL of melatonin loading solution was added to the donor compartment. Receptor samples collected at each time point were mixed with an equal volume of acetonitrile, vortexed, and centrifuged (AccuSpin Micro17, Fisher Scientific, Waltham, MA, USA) at 10,000× g for 20 min. The resulting supernatants were collected for HPLC analysis. […] Receptor samples collected at each time point were centrifuged (AccuSpin Micro17, Fisher Scientific, Waltham, MA, USA) directly at 10,000× g for 20 min. The supernatants were collected for microplate reader (SpectraMax iD5, Molecular Devices, San Jose, CA, USA) analysis. The permeation curve is reported as percentage of drug permeated and was computationally corrected for the withdrawn volume using an Excel (Microsoft, Redmond, WA, USA) add-in program DDSolver 1.0 [53]. Papp were calculated as described in previous work. Numerical simulations were performed using COMSOL Multiphysics® version 6.2 (COMSOL Inc., Burlington, MA, USA), following the methodology established in our previous study. The simulations were based on Fick’s law of diffusion, describing solute concentration changes over time and space within a defined three-dimensional geometry. The “Transport of Diluted Species” physics interface was employed to simulate drug diffusion dynamics, while adsorption effects were incorporated to account for drug retention within the nasal mucosa. […] To address this, the simulation model was first fitted to experimentally obtained permeation profiles to extract key transport parameters. These parameters were subsequently used to normalize each permeation curve to a standardized mucosal thickness of 0.80 mm. Thickness correction minimized the impact of variability and enabled more accurate and consistent comparisons across experimental conditions.

porcine nasal mucosa [7] = assay: as above; format: in vitro ADME, Sus scrofa domesticus
Procedure: as §1

[8] = different-pig (inter-individual) group, n = 3, simulation-based normalization, read-out: mean Papp after normalization to standardized thickness of 0.80 mm
[9] = same-pig (intra-individual) group, n = 3, simulation-based normalization, read-out: mean Papp after normalization to standardized thickness of 0.80 mm

| SMILES | log P ([1]; pH 4.29) | log P ([1]; pH 7.5) | visual appearance of solution [2] | log P [3] | Flu-Na permeability (Papp) vs DPBS negative control, preliminary study (porcine nasal mucosa [4]; 10% IPA as positive control, groups from different donor pigs, unpublished data) | trend of Papp values with IPA concentration (porcine nasal mucosa [4]; escalating IPA concentrations (10%, 50%, and 100%), 30 min) | Flu-Na permeability (Papp) vs DPBS negative control (porcine nasal mucosa [4]; mucosa immersed in 10% IPA for 30 min, same pig, normalized to 0.80 mm, three pigs) | log D (shake-flask), pH dependency [5] | Papp at 8 h [6, 8] | Papp at 8 h [6, 9] | decrease of CV of Papp by normalization (porcine nasal mucosa [7]; different-pig group) | decrease of CV of Papp by normalization (porcine nasal mucosa [7]; same-pig group) | Papp at 8 h ([6]; different-pig (inter-individual) group, n = 3, 8 h Franz diffusion, read-out: mean Papp before thickness normalization) | Papp at 8 h, 1008 μg/mL ([6]; same-pig (intra-individual) group, n = 3, 8 h Franz diffusion, read-out: mean Papp before thickness normalization) |
| --- | --- | --- | --- | --- | --- | --- | --- | --- | --- | --- | --- | --- | --- | --- |
| O=C1OC2(c3ccc(O)cc3Oc3cc(O)ccc32)c2ccccc21 [fluorescein] | approximately 2.78 | −0.08 |  |  |  |  |  |  |  |  |  |  |  |  |
| O=C([O-])c1ccccc1-c1c2ccc(=O)cc-2oc2cc([O-])ccc12.[Na+].[Na+] [Flu-Na, Fluorescein sodium salt] |  |  | precipitation observed | −0.67 to −1.52 | paradoxical decrease | general trend of increasing Papp values | lower | progressively more negative | 7.33 ± 1.6 ×10⁻⁶ cm/s | 5.28 ± 0.18 ×10⁻⁶ cm/s |  |  |  |  |
| COc1ccc2[nH]cc(CCNC(C)=O)c2c1 [melatonin, Melatonin] |  |  |  |  |  |  |  |  | 10.5 ± 0.42 ×10⁻⁶ cm/s | 10 ± 0.78 ×10⁻⁶ cm/s | 5.7% | 16.8% | 14.6 ± 1.42 ×10⁻⁶ cm/s | 14.1 ± 3.47 ×10⁻⁶ cm/s |
